{"source": "patent US20020115728A1", "about": "“Compositions and methods for treating cardiovascular disorders” (priority 2000, published 2002)", "type_in_all_cases": "in vivo", "key": {"aortas of apoE−/− mice": {"test_system": "aortas of apoE−/− mice", "experiment": "Aortic lipids, oxidised lipids and antioxidants by HPLC of aortic homogenates", "conditions": "24 weeks", "protocol": "Male C57BL/6J mice, homozygous for the disrupted apoE gene (apoE−/−) were fed standard chow (Lab-Feed, Sydney, Australia) until aged 10 weeks. […] The high fat diet (control and probucol-supplemented) was prepared, according to the specifications of the Harlan Teklad diet TD88137.\nAfter bleeding, mice were gravity-perfused for 5 min with DPBS containing 20 μM BHT and 1 mM EDTA (Buffer A) and aortas removed as described in Letters J M, et al (1999). Briefly, hearts, ascending and descending aortas (past the femoral junction) were excised and carefully cleaned. […] Once cleaned, aortas were separated from the heart taking care to include all aortic material while avoiding heart tissue. To obtain sufficient material for HPLC analysis (i.e., 30-40 mg wet weight tissue) it was necessary to pool 7-8 aortas. Separate pools of aortas were prepared for both groups and then immediately frozen in Buffer A and stored at −80° C. until analyses.\nPooled aortas were snap frozen in liquid nitrogen, pulverised, resuspended in Buffer A, homogenised and then either treated with metaphosphoric acid (for ascorbate) or extracted and the hexane fraction analysed for lipid-soluble antioxidants, cholesterol (C), choleseteryl esters (CE), lipid hydroperoxides (LOOH) and cholesteryl ester hydroxides (CE-OH) by HPLC as described in Methods Enzymol. 1994;233:469-489. LOOH and CE-OH were measured as markers of lipoprotein lipid oxidation, as they are the primary and major oxidation products formed when lipoproteins from apoE−/− mice undergo oxidation. […] All compounds were quantified by peak area comparison with authentic standards, and protein determined.\nApoE−/− mice were fed either a control or probucol-supplemented diet for 24 weeks before aortas and plasma were analysed."}, "[1]": {"test_system": "atherosclerotic lesions in apoE−/− mice", "experiment": "Atherosclerotic lesion cross-section areas at four aortic sites (morphometry)", "protocol": "Male C57BL/6J mice, homozygous for the disrupted apoE gene (apoE−/−) were fed standard chow (Lab-Feed, Sydney, Australia) until aged 10 weeks. […] The high fat diet (control and probucol-supplemented) was prepared, according to the specifications of the Harlan Teklad diet TD88137. […]\nLesions were assessed at four different sites along the aorta, in the aortic root, in the aortic arch, the descending thoracic and in the proximal abdominal aorta, and cross-sections (2-3 μm thick) were prepared and stained with Weigert's hematoxylin-van Gieson."}, "[2]": {"test_system": "ballooned New Zealand White rabbits", "experiment": "Re-endothelialization in cholesterol-fed and normal chow fed ballooned rabbits", "source_text": "Results are from two separate experiments and represent mean±SD of six (cholesterol diet) and five animals (normal diet) per group. Asterisk indicates statistically significant higher values compared with corresponding controls, with p-values of 0.002, 0.015 and 0.025 for *, ** and * respectively."}, "[3]": {"conditions": "lipid-standardised oxidised lipids, 1% probucol"}, "[4]": {"conditions": "apoE−/− mice, 1% probucol, 24 weeks"}, "[5]": {"conditions": "2% Cholesterol-fed ballooned rabbits"}, "[6]": {"conditions": "Normal Chow fed ballooned rabbits"}}, "note": "Marks after values point to notes of the source that are not given here."}
{"molecule": "CC(C)(Sc1cc(C(C)(C)C)c(O)c(C(C)(C)C)c1)Sc1cc(C(C)(C)C)c(O)c(C(C)(C)C)c1", "note": "[Probucol, probucol]", "values": [{"measurement": "effect on aortic content of lipid standardised oxidized lipids", "setting": "aortas of apoE−/− mice; 1% probucol", "result": "did not affect"}, {"measurement": "Aorta Ascorbate", "setting": "aortas of apoE−/− mice; 1% probucol, aorta", "result": "322 ± 320", "unit": "pmol/mgp"}, {"measurement": "Aorta C18:2", "setting": "aortas of apoE−/− mice; 1% probucol, aorta", "result": "12 ± 6", "unit": "nmol/mgp"}, {"measurement": "Aorta C20:4", "setting": "aortas of apoE−/− mice; 1% probucol, aorta", "result": "4.0 ± 2", "unit": "nmol/mgp"}, {"measurement": "Aorta CE-OH", "setting": "aortas of apoE−/− mice; 1% probucol, aorta", "result": "0.17 ± 0.08", "unit": "nmol/mgp"}, {"measurement": "Aorta LOOH", "setting": "aortas of apoE−/− mice; 1% probucol, aorta", "result": 0.080, "unit": "nmol/mgp"}, {"measurement": "Aorta Total coenzyme Q", "setting": "aortas of apoE−/− mice; 1% probucol, aorta", "result": "139 ± 57", "unit": "pmol/mgp"}, {"measurement": "Aorta Ubiquinone-9", "setting": "aortas of apoE−/− mice; 1% probucol, aorta", "result": "114 ± 47", "unit": "pmol/mgp"}, {"measurement": "Aorta Ubiquinone-10", "setting": "aortas of apoE−/− mice; 1% probucol, aorta", "result": "25 ± 10", "unit": "pmol/mgp"}, {"measurement": "Aorta α-Tocopherol", "setting": "aortas of apoE−/− mice; 1% probucol, aorta", "result": 380, "unit": "pmol/mgp"}, {"measurement": "Aorta α-Tocopherylquinone", "setting": "aortas of apoE−/− mice; 1% probucol, aorta", "result": "30 ± 2", "unit": "pmol/mgp"}, {"measurement": "Aorta C (cholesterol)", "setting": "aortas of apoE−/− mice; high fat diet with 1% probucol, aorta", "result": "173 ± 60", "unit": "nmol/mgp"}, {"measurement": "Aortic CE-OH/LH (× 10^3)", "setting": "aortas of apoE−/− mice; [3]", "result": "12.5 ± 6.7 × 10^3"}, {"measurement": "Aortic LOOH/LH (× 10^3)", "setting": "aortas of apoE−/− mice; [3]", "result": "4.4^a × 10^3"}, {"measurement": "decrease of aortic concentration of C vs controls", "setting": "aortas of apoE−/− mice; per protein, 1% probucol", "result": 5.6, "unit": "fold"}, {"measurement": "decrease of aortic concentration of total CoQ vs controls", "setting": "aortas of apoE−/− mice; per protein, 1% probucol", "result": 2.5, "unit": "fold"}, {"measurement": "decrease of aortic concentration of vitamin E vs controls", "setting": "aortas of apoE−/− mice; per protein, 1% probucol", "result": 2.9, "unit": "fold"}, {"measurement": "lesion formation at the abdominal aorta", "setting": "[1]; [4]", "result": "effectively prevented lesion formation"}, {"measurement": "lesions in the aortic arch and descending thoracic aorta vs control", "setting": "[1]; [4]", "result": "significantly smaller"}, {"measurement": "lesion cross-section area, Aortic Root", "setting": "[1]; apoE−/− mice, high fat diet with 1% (w/w) probucol, 24 weeks, aortic root", "result": 1180, "unit": "μm^2 × 10^−3"}, {"measurement": "lesion cross-section area, Abdominal Aorta", "setting": "[1]; apoE−/− mice, high fat diet with 1% probucol, 24 weeks, abdominal aorta", "result": "12 ± 12(3) μm^2 × 10^−3"}, {"measurement": "lesion cross-section area, Arch", "setting": "[1]; apoE−/− mice, high fat diet with 1% probucol, 24 weeks, aortic arch", "result": "140 ± 34", "unit": "μm^2 × 10^−3"}, {"measurement": "lesion cross-section area, Descending Thoracic Aorta", "setting": "[1]; apoE−/− mice, high fat diet with 1% probucol, 24 weeks, descending thoracic aorta", "result": "*5 ± 4 (8)* μm^2 × 10^−3"}, {"measurement": "Treatment effect on lesion area, Abdominal Aorta", "setting": "[1]; probucol vs controls, abdominal aorta", "result": 10, "unit": "%"}, {"measurement": "Treatment effect on lesion area, Arch", "setting": "[1]; probucol vs controls, aortic arch", "result": 44, "unit": "%"}, {"measurement": "Treatment effect on lesion area, Aortic Root", "setting": "[1]; probucol vs controls, aortic root", "result": 146, "unit": "%"}, {"measurement": "Treatment effect on lesion area, Descending Thoracic Aorta", "setting": "[1]; probucol vs controls, descending thoracic aorta", "result": 15, "unit": "%"}, {"measurement": "Re-endothelialized area, Abdominal Aorta", "setting": "[2]; [5]", "result": "55.1 ± 7.1** % total surface area"}, {"measurement": "Re-endothelialized area, Thoracic Aorta", "setting": "[2]; [5]", "result": "57.3 ± 5.1* % total surface area"}, {"measurement": "Re-endothelialized area, Abdominal Aorta", "setting": "[2]; [6]", "result": "48.2 ± 9.0*** % total surface area"}, {"measurement": "Re-endothelialized area, Thoracic Aorta", "setting": "[2]; [6]", "result": "50.4 ± 6.4** % total surface area"}]}
